Assay results published in patent US20210246208A1, “COMBINED INHIBITION OF PD-1/PD-L1, TGFB AND DNA-PK FOR THE TREATMENT OF CANCER” (MERCK PATENT GMBH, priority 2018, published 2021).

Columns and labels:
DNA-PK = DNA-PK (Homo sapiens, UniProt P78527); assay: Crystallographic and enzyme kinetics studies on DNA-PK; assay type: biochemical
Description: DNA-PK, together with five additional protein factors (Ku70, Ku80, XRCC4, Ligase IV and Artemis) plays a critical role in the repair of DSB via NHEJ. Kinase activity of DNA-PK is essential for proper and timely DNA repair and the long-term survival of cancer cells.

[1] = system: EMT, fibrosis and VEGF pathway gene signatures in 4T1 tumor tissue; assay: RNAseq gene signatures of 4T1 tumor tissue (Example 3G); assay type: in vivo, BALB/c mice; conditions: tumors harvested day 6
Description: Tumor tissues were harvested at Day 6 for RNAseq analysis. Gene expression signatures associated with (A) EMT, (B) fibrosis, and (C) VEGF pathway signatures are presented as box plots. Signature scores are defined as the mean log2 (fold change) among all genes in the signature.
RNAseq was performed with Qiagen targeted RNAseq panels consisting of 1278 total genes. EMT and fibrosis gene signatures were based on Qiagen gene lists and the VEGF pathway signature was based on the Biocarta VEGF pathway in Broad's Canonical Pathways. For these gene sets, signature scores are defined as the mean log2 (fold-change) among all genes in each gene signature. These were calculated by adding a pseudocount of 0.5 TPM to all genes and samples, determining the log2 (TPM), then subtracting the median log 2-TPM for each gene across all samples from the log2-TPM for each gene. Signature scores for gene sets are shown as boxplots.

MC38 tumors = assay: M3814 and avelumab in murine colon tumor model MC38 (Example 1); assay type: in vivo, C57BL6/N mice; conditions: M3814 150 mg/kg orally once daily, avelumab 400 μg/mouse i.v. days 3, 6, 9; for median time the tumors needed to double in size compared to initial volume at day 0: MC38 in C57BL6/N mice, Kaplan-Meyer evaluation; for T/C value: calculated at day 13
Description: M3814 was applied daily started from day 0; Avelumab was applied on days 3, 6 and 9.
This model allows the use of immunocompetent mice, a necessary requirement to study the T-cell mediated antitumor effect of Avelumab. The experimental set up included the induction of MC38 tumors in C57BL6/N mice by injection of 1×10^6 tumor cells into the right flank of the animals. Tumor growth was followed over time by measuring length and width using a caliper. When tumors were established to an average size of 50-100 mm^3, mice were subdivided in 4 treatment groups with 10 animals each, and treatment started. This day was defined as day 0. Group 1 received vehicle treatment. Group 2 received M3814 orally once daily at 150 mg/kg in a volume of 10 ml/kg. Group 3 received avelumab intravenously once daily at 400 μg/mouse in a volume of 5 ml/kg on days 3, 6 and 9. Group 4 received M3814 orally once daily at 150 mg/kg in a volume of 10 ml/kg and avelumab intravenously once daily at 400 μg/mouse in a volume of 5 ml/kg on days 3, 6 and 9.

4T1 mammary tumors = assay: 4T1 mammary tumor model, tumor volume and survival (Example 3A); conditions: concurrent dosing; day 10; Trap 492 μg day 0, 2, 4; radiation 8 Gy day 0-3; M3814 150 mg/kg p.o. q.d. day 0-14
Description: BALB/c mice were inoculated intramuscularly (i.m.) with 0.5×10^5 4T1 cells (day −6) and treated (n=10 mice/group) with (A-C) isotype control (400 μg i.v.; day 0, 2, 4)+vehicle control (0.2 mL, orally [per os; p.o.], once daily [quaque die; q.d.], day 0-14), M7824 (492 μg i.v.; day 0, 2, 4), radiation (8 Gy, day 0-3), M3814 (150 mg/kg, p.o, q.d., day 0-14), M7824+RT, M7824+M3814, RT+M3814, or M7824+RT+M3814; or (D-F) isotype control (400 μg i.v.; day 4, 6, 8)+vehicle control (0.2 mL, (p.o.), (q.d.), day 0-14), M7824 (492 μg i.v.; day 4, 6, 8), radiation (8 Gy, day 0-3), M3814 (150 mg/kg, p.o, q.d., day 0-14), M7824+RT, M7824+M3814, RT+M3814, or M7824+RT+M3814. A-B, D-E, Tumor volumes were measured twice weekly and presented as (A, D) mean±SEM or (B, E) individual tumor volumes. P-values were calculated by two-way RM ANOVA with Tukey's post-test. C, F, For survival analysis, mice were sacrificed when tumor volumes reached ≈2000 mm^3 and median survival times were calculated.
For efficacy and survival studies, 4T1 cells, 0.5×10^5, were inoculated intramuscularly (i.m.) in the thigh of BALB/c mice on day −6. […]
Tumor sizes for the 4T1 and MC38 models were measured twice per week with digital calipers and recorded automatically using WinWedge software. Tumor volumes were calculated with the following formula: tumor volume (mm^3)=tumor length×width×height×0.5236. […]

[2] = 10 mg/kg dose; cited from earlier work

Row | Compound | inhibition of DNA-PK (DNA-PK) | EMT signature score [1] | fibrosis signature score [1] | median time the tumors needed to double in size compared to initial volume at day 0 (MC38 tumors) [days] | T/C value (MC38 tumors) [%] | tumor volume (4T1 mammary tumors) | pharmacokinetics profile [2] | receptor occupancy [2] | tolerability [2]
1 | COc1ccc([C@@H](O)c2cc(-c3ncnc4cc(N5CCOCC5)ccc34)c(F)cc2Cl)nn1 [Compound M3814, (S)-[2-chloro-4-fluoro-5-(7-morpholin-4-yl-quinazolin-4-yl)-phenyl]-(6-methoxypyridazin-3-yl)-methanol] | potent and selective ATP-competitive inhibitor of DNA-PK | no effect on the EMT signature | significantly decreased the score | 10 | 47 | did not significantly affect tumor growth |  |  | 
2 | avelumab: fully human monoclonal antibody of the immunoglobulin (Ig) G1 isotype that selectively binds to PD-L1 |  |  |  | 13 | 60 |  | predictable pharmacokinetics profile | excellent receptor occupancy | well tolerated
